Experimental data taken from the supplement of paper PMC11451515.

System: P12-Ichikawa
Assay: cell viability relative to DMSO control; higher = less cytotoxic
Conditions: 48 h
In short: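 Three leukemia lines were tested: NOMO1 and SEM at 500 cells/well and P12-Ichikawa at 1000 cells/well. Each was adapted for at least four passages in each medium and seeded in 5 μl in 1536-well plates, and library compounds in DMSO were pin-dosed from 47 μM to 0.79 nM in 11 threefold steps. After 48 h at 37°C, CellTiter-Glo One luminescence was read. Viability is a percentage relative to DMSO wells on each plate, with cell-free wells as background.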

[1] = HPLM + 10% dialyzed FBS, 0.000781 µM
[2] = HPLM + 10% dialyzed FBS, 0.00234 µM
[3] = HPLM + 10% dialyzed FBS, 0.00702 µM
[4] = HPLM + 10% dialyzed FBS, 0.0211 µM
[5] = HPLM + 10% dialyzed FBS, 0.0632 µM
[6] = HPLM + 10% dialyzed FBS, 0.19 µM
[7] = HPLM + 10% dialyzed FBS, 0.569 µM
[8] = HPLM + 10% dialyzed FBS, 1.71 µM
[9] = HPLM + 10% dialyzed FBS, 5.12 µM
[10] = HPLM + 10% dialyzed FBS, 15.4 µM
[11] = HPLM + 10% dialyzed FBS, 46.1 µM
[12] = RPMI 5 mM glucose + 10% FBS, 0.000781 µM
[13] = RPMI 5 mM glucose + 10% FBS, 0.00234 µM
[14] = RPMI 5 mM glucose + 10% FBS, 0.00702 µM
[15] = RPMI 5 mM glucose + 10% FBS, 0.0211 µM
[16] = RPMI 5 mM glucose + 10% FBS, 0.0632 µM
[17] = RPMI 5 mM glucose + 10% FBS, 0.19 µM
[18] = RPMI 5 mM glucose + 10% FBS, 0.569 µM
[19] = RPMI 5 mM glucose + 10% FBS, 1.71 µM
[20] = RPMI 5 mM glucose + 10% FBS, 5.12 µM
[21] = RPMI 5 mM glucose + 10% FBS, 15.4 µM
[22] = RPMI 5 mM glucose + 10% FBS, 46.1 µM
[23] = RPMI 5 mM glucose + 10% dialyzed FBS, 0.000781 µM
[24] = RPMI 5 mM glucose + 10% dialyzed FBS, 0.00234 µM
[25] = RPMI 5 mM glucose + 10% dialyzed FBS, 0.00702 µM
[26] = RPMI 5 mM glucose + 10% dialyzed FBS, 0.0211 µM
[27] = RPMI 5 mM glucose + 10% dialyzed FBS, 0.0632 µM
[28] = RPMI 5 mM glucose + 10% dialyzed FBS, 0.19 µM
[29] = RPMI 5 mM glucose + 10% dialyzed FBS, 0.569 µM
[30] = RPMI 5 mM glucose + 10% dialyzed FBS, 1.71 µM
[31] = RPMI 5 mM glucose + 10% dialyzed FBS, 5.12 µM
[32] = RPMI 5 mM glucose + 10% dialyzed FBS, 15.4 µM
[33] = RPMI 5 mM glucose + 10% dialyzed FBS, 46.1 µM

Row | SMILES | cell viability [1] [%] | cell viability [2] [%] | cell viability [3] [%] | cell viability [4] [%] | cell viability [5] [%] | cell viability [6] [%] | cell viability [7] [%] | cell viability [8] [%] | cell viability [9] [%] | cell viability [10] [%] | cell viability [11] [%] | cell viability [12] [%] | cell viability [13] [%] | cell viability [14] [%] | cell viability [15] [%] | cell viability [16] [%] | cell viability [17] [%] | cell viability [18] [%] | cell viability [19] [%] | cell viability [20] [%] | cell viability [21] [%] | cell viability [22] [%] | cell viability [23] [%] | cell viability [24] [%] | cell viability [25] [%] | cell viability [26] [%] | cell viability [27] [%] | cell viability [28] [%] | cell viability [29] [%] | cell viability [30] [%] | cell viability [31] [%] | cell viability [32] [%] | cell viability [33] [%]
1 | OC[C@H]1O[C@H]([C@@H](F)[C@@H]1O)N2\C=C/C(=O)NC2=O | 110 | 108 | 108 | 110 | 108 | 112 | 114 | 102 | 99.6 | 98 | 94.1 | 99 | 108 | 108 | 91.6 | 97.9 | 114 | 106 | 102 | 92.1 | 102 | 106 | 109 | 93.5 | 104 | 100 | 99.4 | 97 | 105 | 96 | 93.6 | 93.5 | 88.6
2 | CC(=O)C\1=C(/C)C2=CN=C(NC3=CC=C(C=N3)N4CCNCC4)N=C2N(C5CCCC5)C1=O | 111 | 121 | 119 | 114 | 114 | 110 | 107 | 93.1 | 88.5 | 77 | 28.9 | 119 | 116 | 124 | 113 | 113 | 119 | 98.5 | 78.6 | 72.6 | 66.6 | 61 | 122 | 117 | 127 | 117 | 118 | 114 | 104 | 83.4 | 76.9 | 73 | 45.6
3 | NC1=NC=C(C=C1)C2=CC=C3N=CC\4=C(N(C(=O)\C=C4)C5=CC(=CC=C5)C(F)(F)F)C3=C2 | 81.4 | 82.7 | 76.7 | 66.7 | 58.6 | 41.1 | 42.6 | 34.5 | 11.6 | 14 | 15.7 | 67.1 | 64.9 | 56.3 | 51.8 | 50.4 | 34 | 33.4 | 27.2 | 7.23 | 7.38 | 11.5 | 64.4 | 74.4 | 59.6 | 52.7 | 50.3 | 32.9 | 30.4 | 23.7 | 7.6 | 7.89 | 12.4
4 | COc1cc(Nc2ncc(F)c(Nc3ccc4c(n3)NC(=O)C(C)(C)O4)n2)cc(OC)c1OC | 107 | 112 | 120 | 114 | 122 | 118 | 129 | 101 | 44.8 | 4.38 | 4.34 | 114 | 107 | 126 | 112 | 119 | 126 | 113 | 114 | 62.3 | 5.34 | 5.36 | 110 | 122 | 113 | 122 | 121 | 121 | 137 | 112 | 62.4 | 5.87 | 5.61
